Patent US7186701B2, “Dehydrating agent and method for dehydrating moist article using the agent and dehydrated article obtained by the method” (Kabushiki Kaisha Hayashibara Seibutsu Kagaku Kenkyujo, priority 2001, dated 2007)

Legend:
[1] = molecular target: T1, salivary amylase (Homo sapiens, UniProt P0DUB6)
T1 sequence (P0DUB6 16-511): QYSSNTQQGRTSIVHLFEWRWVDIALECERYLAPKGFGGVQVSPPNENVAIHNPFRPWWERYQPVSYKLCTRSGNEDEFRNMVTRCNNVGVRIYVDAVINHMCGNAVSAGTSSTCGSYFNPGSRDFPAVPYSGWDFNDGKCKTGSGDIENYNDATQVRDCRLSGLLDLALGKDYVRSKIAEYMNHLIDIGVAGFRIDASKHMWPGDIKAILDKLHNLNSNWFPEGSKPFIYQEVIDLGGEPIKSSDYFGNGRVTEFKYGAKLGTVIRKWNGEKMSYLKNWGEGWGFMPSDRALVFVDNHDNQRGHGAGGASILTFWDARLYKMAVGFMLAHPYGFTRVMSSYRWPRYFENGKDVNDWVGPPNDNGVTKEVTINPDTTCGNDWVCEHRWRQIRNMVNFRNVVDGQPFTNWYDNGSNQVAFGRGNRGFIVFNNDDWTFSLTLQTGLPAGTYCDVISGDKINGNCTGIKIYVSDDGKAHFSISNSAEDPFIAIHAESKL

[2] = test system: Bifidobacterium adolescentis JCM 1275; assay: Assimilation test; type: cell-based; details: 0.5% saccharide in PYF medium, 37° C., four days, anaerobic
[3] = test system: Clostridium perfringens JCM 3816; type: cell-based; details: 0.5% saccharide in PYF medium, 37° C., four days, anaerobic
[4] = test system: Small intestinal mucosal enzyme
[5] = molecular target: T2, amylopsin (Homo sapiens, UniProt P04746)
T2 sequence (P04746 16-511): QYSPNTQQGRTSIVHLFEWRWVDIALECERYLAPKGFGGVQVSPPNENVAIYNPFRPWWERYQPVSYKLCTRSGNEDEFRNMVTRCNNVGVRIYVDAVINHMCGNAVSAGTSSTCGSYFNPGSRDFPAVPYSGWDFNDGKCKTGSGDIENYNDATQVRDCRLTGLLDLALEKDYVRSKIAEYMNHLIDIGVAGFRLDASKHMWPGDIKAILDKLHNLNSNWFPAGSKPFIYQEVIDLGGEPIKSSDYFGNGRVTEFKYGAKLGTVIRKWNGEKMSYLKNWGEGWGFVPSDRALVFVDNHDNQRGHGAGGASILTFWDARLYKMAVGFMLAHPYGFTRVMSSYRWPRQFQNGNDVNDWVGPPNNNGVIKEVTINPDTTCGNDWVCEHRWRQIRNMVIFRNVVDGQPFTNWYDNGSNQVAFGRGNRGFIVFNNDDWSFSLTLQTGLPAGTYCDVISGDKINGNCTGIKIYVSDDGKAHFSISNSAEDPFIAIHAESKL

[6] = Thermostability; type: physicochemical; details: 10% (w/v) aqueous solution, 120° C.; for Purity (%) after heating: HPLC
Experimental: After the heating, the aqueous solutions were cooled under atmospheric conditions and measured for coloration degree and determined for purity on HPLC. The coloration degree of each solution was evaluated based on the absorbance in a cell with a 1-cm light pass at a wavelength of 480 nm.

[7] = test system: mice; assay: Acute toxicity test, oral; type: in vivo; details: oral administration to mice
Description: Based on this, the LD50 of cyclotetrasaccharide was at least 50 g/kg mouse body weight, though the value was […].

[8] = test system: Lactobacillus acidophilus JCM 1132; assay: Assimilation test; type: cell-based; details: 0.5% saccharide in PYF medium, 37° C., four days, anaerobic
[9] = Amino carbonyl reaction with polypeptone; type: physicochemical; details: 10% (w/v) with 5% (w/v) polypeptone, 100° C., minus control
Experimental: Four milliliter aliquots of the resulting solution were placed in glass test tubes, sealed, and heated at 100° C. for 30 to 90 min. After allowing to stand for cooling at ambient temperature, each of the resulting solution was measured for coloration degree to examine their amino carbonyl reactivity. In parallel, as a control, a solution with only polypeptone was provided and treated similarly as above. The coloration degree was evaluated based on the level of the absorbance, which had been measured in a cell with 1-cm light pass at a wavelength of 480 nm, minused that of the control.

[10] = Amino carbonyl reaction with glycine; type: physicochemical; details: 10% (w/v) with 1% (w/v) glycine, pH 7.0, 120° C.
Experimental: Four milliliter aliquots of the resulting solution were placed in glass test tubes, sealed, and heated at 120° C. for 30 to 90 min. After allowing to stand for cooling at ambient temperature, each of the resulting solutions was measured for coloration degree to examine their amino carbonyl reactivity. The coloration degree was evaluated based on the absorbance in a cell with 1-cm light pass at a wavelength of 480 nm.

[11] = test system: Eubacterium aerofaciens ATCC 25986; assay: Assimilation test; type: cell-based; details: 0.5% saccharide in PYF medium, 37° C., four days, anaerobic
[12] = pH stability; type: physicochemical; details: 4% (w/v), 100° C., 24 hours; for Purity (%) after heating: HPLC
Experimental: Eight milliliters of each solution was placed in a glass test tube, followed by sealing and then heating the test tube at 100° C. for 24 hours. After the heating, each solution was cooled and measured for coloration degree and determined for purity on HPLC. The coloration degree was evaluated based on the absorbance in a cell with a 1-cm light pass at a wavelength of 480 nm.

OCC1OC2OCC3O[C@H](O[C@H]4C(O)C(CO)OC(OCC5O[C@H](O[C@@H](C1O)C2O)C(O)C(O)[C@@H]5O)C4O)C(O)C(O)[C@@H]3O (stereo partly drawn) [cyclotetrasaccharide, cyclo{→6)-α-D-glucopyranosyl-(1→3)-α-D-glucopyranosyl-(1→6)-α-D-glucopyranosyl-(1→3)-α-D-glucopyranosyl-(1→}]
Decomposition percentage (%) by digestive enzyme [1]: 0.0% | Assimilability [2]: − (judged as negative (−) when the post culture had a pH of 6.0 or higher) | Assimilability [3]: − (judged as negative (−) when the post culture had a pH of 6.0 or higher) | Decomposition percentage (%) by digestive enzyme [4]: 0.74% | digestibility level relative to that of maltitol [4]: ⅕ | Decomposition percentage (%) by digestive enzyme [5]: 0.0% | Coloration degree (A480 nm) ([6]; heating time 0 min): 0.00 A480 nm | Purity (%) after heating ([6]; heating time 0 min): 100% | Coloration degree (A480 nm) ([6]; heating time 30 min): 0.00 A480 nm | Purity (%) after heating ([6]; heating time 30 min): 100% | Coloration degree (A480 nm) ([6]; heating time 60 min): 0.00 A480 nm | Purity (%) after heating ([6]; heating time 60 min): 100% | Coloration degree (A480 nm) ([6]; heating time 90 min): 0.00 A480 nm | Purity (%) after heating ([6]; heating time 90 min): 100% | LD50 [7]: at least 50 g/kg mouse body weight | Assimilability [8]: − (judged as negative (−) when the post culture had a pH of 6.0 or higher) | Coloration degree (A480 nm) ([9]; heating time 0 min): 0.00 A480 nm | Coloration degree (A480 nm) ([9]; heating time 30 min): 0.00 A480 nm | Coloration degree (A480 nm) ([9]; heating time 60 min): 0.00 A480 nm | Coloration degree (A480 nm) ([9]; heating time 90 min): 0.00 A480 nm | Coloration degree (A480 nm) ([10]; heating time 0 min): 0.00 A480 nm | Coloration degree (A480 nm) ([10]; heating time 30 min): 0.00 A480 nm | Coloration degree (A480 nm) ([10]; heating time 60 min): 0.00 A480 nm | Coloration degree (A480 nm) ([10]; heating time 90 min): 0.00 A480 nm | Assimilability [11]: − (judged as negative (−) when the post culture had a pH of 6.0 or higher) | Coloration degree (A480 nm) ([12]; pH 2.0 (Acetate buffer)): 0.00 A480 nm | Purity (%) after heating ([12]; pH 2.0 (Acetate buffer)): 93% | Coloration degree (A480 nm) ([12]; pH 3.0 (Acetate buffer)): 0.00 A480 nm | Purity (%) after heating ([12]; pH 3.0 (Acetate buffer)): 100% | Coloration degree (A480 nm) ([12]; pH 4.0 (Acetate buffer)): 0.00 A480 nm | Purity (%) after heating ([12]; pH 4.0 (Acetate buffer)): 100% | Coloration degree (A480 nm) ([12]; pH 5.0 (Acetate buffer)): 0.00 A480 nm | Purity (%) after heating ([12]; pH 5.0 (Acetate buffer)): 100% | Coloration degree (A480 nm) ([12]; pH 6.0 (Tris-HCl buffer)): 0.00 A480 nm | Purity (%) after heating ([12]; pH 6.0 (Tris-HCl buffer)): 100% | Coloration degree (A480 nm) ([12]; pH 7.0 (Tris-HCl buffer)): 0.00 A480 nm | Purity (%) after heating ([12]; pH 7.0 (Tris-HCl buffer)): 100% | Coloration degree (A480 nm) ([12]; pH 8.0 (Tris-HCl buffer)): 0.00 A480 nm | Purity (%) after heating ([12]; pH 8.0 (Tris-HCl buffer)): 100% | Coloration degree (A480 nm) ([12]; pH 9.0 (Ammonium buffer)): 0.00 A480 nm | Purity (%) after heating ([12]; pH 9.0 (Ammonium buffer)): 100% | Coloration degree (A480 nm) ([12]; pH 10.0 (Ammonium buffer)): 0.00 A480 nm | Purity (%) after heating ([12]; pH 10.0 (Ammonium buffer)): 100%
